CC50, EC50 and IC50 data for three molecules are collected here from patent US20010049372A1, “Antiviral nucleoside analogues” (BioChem Pharma Inc., priority 1998, published 2001).

Data set [1] is described as follows: Cellular toxicity by WST-1 staining. The format is cell-based. As to conditions: human, CBMCs. The method, then:
(§1) The cellular toxicity of the compounds were assessed on various cells using [^3H]-thymidine uptake. Various cells, including Molt-4, HT1080, DU-145, HepG-2 and HSF, were plated at a concentration of 1-2×10^3 cells per well (96 well plates). After a 24 hr incubation period, 10-fold serial diluted compounds (b 10^−4 M to 10^−10 M) were added to the culture medium and the cells were further incubated for 72 hrs. [^3H]-thymidine was added during the final 18 hr incubation period. After incubation with the [^3H]-thymidine, the cells were washed once with PBS, treated with trypsin if the cells were adherent, and then resuspended in water (hypotonic lysing of cells). The cellular extract was applied directly to a Tomtec Harvester 96. Using this instrument the extracted DNA is adsorbed onto filters, washed and the incorporated [^3H]-thymidine is then counted. The 50% cytotoxic concentration (CC50) was determined by comparing the radioactive counts per minute of the samples in the presence of the compounds against the control. The cellular toxicity of the compounds was also tested by WST-1 staining through assessing proliferation of MT-2, H9, Jurkat, U937, and CBMCs. The established cell lines were cultured in RPMI medium in 96-well plates at a density of 5×10^4 cells/well while CBMCs were plated at a concentration of 0.5×10^6/well. A 10-fold serial diluted (10^−4-10^−7 M) compound was added at day zero. At day 4, the cells were passaged by changing half medium containing appropriately diluted compound. The cell activities were assessed at day 7 using the WST-1 reagent (Boehringer Mannheim) following the protocol provided by the supplier.
In the WST-1 staining experiments, cell lines were cultured in RPMI medium in 96-well plates at a density of 5×10^4 cells/well. CBMCs were plated at a concentration of 0.5×10^6/well. Compounds (10^−4-10^−7 M) were added at day zero. Cell viability was assessed on day 7 using the WST-1 reagent (Boehringer Mannheim) following the protocol provided by the supplier.
For orientation: Tetrazolium assays rely on reduction of a dye to a coloured formazan, in cell work by metabolically active cells.

Data set [2] can be described thus: Cellular toxicity by [3H]-thymidine uptake. The format is cell-based, human. To be noted: human, Table 14, PHA-stimulated PBMCs, read-out: CC50 (μM) [^3H]TTP incorporation in: PBMC. As for the experimental part:
(§2) Cellular toxicity was assessed by [^3H]thymidine uptake (de Muys et al. 1999) and WST-1 staining. In the [^3H]thymidine uptake experiments, Molt-4, HT1080, DU-145, HepG2 and HSF, were plated at a concentration of 1-2×10^3 cells per well (96 well plates). PHA-stimulated PBMCs were cultured at a concentration of 4×10^4 cells per well. Following a 24 hr pre-incubation period, test compounds (10^−4 M to 10^−10 M) were added and the cells were incubated for an additional 72 hrs. [^3H]thymidine was added during the final 18 hr incubation period. The cells were then washed once with PBS, treated with trypsin if the cells were adherent, and resuspended in water (hypotonic lysing of cells). The cellular extract was applied directly to a Tomtec Harvester 96. The 50% cytotoxic concentration (CC50) was determined by comparing the radioactive counts per minute obtained from drug-tested samples to those obtained from the control (untreated) cells.

Data set [3] is described as follows: Cellular toxicity by [3H]-thymidine uptake. The class given is cell-based. As to conditions: human. As for the experimental part: as §1, §2
Another data set has as its system K65R. The data set is described as follows: Recombinant drug resistant HIV-1 variants (RT activity). To be noted: Human immunodeficiency virus 1. The format is cell-based. As for the experimental part:
(§3) ANTIVIRAL ASSAYS. The anti-HIV-1 activity of the compound A (−) were assessed by employing HIV-1IIIB in a variety of cell types as previously described (Gu et al., 1992, 1994, 1999; Rando et al., 1995; Salomon et al., 1994). Briefly, cells were incubated with virus at a multiplicity of infection (MOI) of 0.005 for T cell assays and an MOI of 0.5 for monocytic cell assays for 3 hrs. Unbound virus was then removed by washing the cells, followed by seeding the cells into a 96-well plate. The infected cells were cultured in the presence of a serial concentrations of the test compound for 5-7 days. The anti-HIV-1 efficacy was determined by testing for HIV-1 RT activity or p24 level in the cell culture supernatants. All assays were performed in duplicate. Zidovudine and/or lamivudine were used as controls in each experiment.
Recombinant HIV-1 variants were prepared by introducing the designed mutations into HXB2-D by site-directed mutagenesis as described (Gu et al. 1992, 1994). The virus stocks were prepared by transfecting MT-4 cells with infectious viral DNA constructs. Antiviral activity of the compound A (−) was evaluated as described in example 10.

The test system of the next data set is 105/A (wt). The data set is described as follows: Drug-resistant clinical isolates in PBMCs (p24). The format is cell-based, HIV-1. To be noted: Human immunodeficiency virus 1, PBMC. As for the experimental part: as §3
(§4) Clinical strains were isolated from PBMCs of HIV-1 infected individuals through co-culture with PBMCs from normal dornors. To determine the RT genotype of the HIV-1 clinical isolates, the proviral DNA was extracted from infected CD4^+ T-cells or PBMCs and the complete RT coding regions were amplified by PCR as previously reported (Gu et al 1992). The PCR product was purified and then directly sequenced using primer RTS (5′-CCAAAAGTTAAACAATGGC-3′) which is located at the 5′ portion of the RT coding region (nucleotide 2603-2621 of HXB2-D coordinates). Antiviral activity was evaluated as described in example 10.

The next data set relates to 105/F (zidovudine^R). The data set is described as follows: Drug-resistant clinical isolates in PBMCs (p24). To be noted: Human immunodeficiency virus 1, PBMC. The class given is cell-based, HIV-1. As for the experimental part:
as §3, §4

In a further data set the test system is CCR15 (Lamivudine^R). Briefly: Drug-resistant clinical isolates in PBMCs (p24). To be noted: Human immunodeficiency virus 1, PBMC. The format is cell-based, HIV-1. As for the experimental part:
as §3, §4

A further data set concerns CCR18 (Lamivudine^R). The data set is described as follows: Drug-resistant clinical isolates in PBMCs (p24). The class given is cell-based, HIV-1. To be noted: Human immunodeficiency virus 1, PBMC. The method, then: as §3, §4
The next data set concerns CCR19 (Lamivudine^R). The data set is described as follows: Drug-resistant clinical isolates in PBMCs (p24). The class given is cell-based, HIV-1. As to conditions: Human immunodeficiency virus 1, PBMC. The method, then: as §3, §4
[4] abbreviates: Table 4, read-out: CC50 (μM) [^3H-]TTP incorporation in: HSF.
The mark [5] stands for this setting: Table 4, read-out: CC50 (μM) [^3H-]TTP incorporation in: Molt-4.

Where two headings read alike, the source gives them in different places. Some results are limits rather than exact numbers.

For orientation: EC50 means the concentration giving half of the maximal effect. Usually IC50 stands for the concentration at which inhibition is half-maximal. The low end stands for greater potency, the high end for weaker potency. Take `Nc1nc(NC2CC2)c2ncn([C@H]3CO[C@@H](CO)O3)c2n1` [Compound A (-), (−)-(2R,4R)-2-hydroxymethyl-4-(2′-amino-6′-cyclopropylamino-purine-9′-yl)-1,3-dioxolane]: the CC50 at 7 days in [1] (Table 14, day 7, read-out: CC50 (μM) WST-1 CBMC) is greater than 100 µM. The CC50 at 72 h was 286 µM in data set [2]; greater than 500 µM in data set [3] (DU-145 cells, Table 14, read-out: CC50 (μM) [^3H]TTP incorporation in: U145); 414 µM in [3] (HSF cells, Table 14, read-out: CC50 (μM) [^3H]TTP incorporation in: HSF); greater than 500 µM in data set [3] (HT1080 cells, Table 14, read-out: CC50 (μM) [^3H]TTP incorporation in: HT800); greater than 500 µM in data set [3] (HepG2 cells, Table 14, read-out: CC50 (μM) [^3H]TTP incorporation in: HepG2); greater than 500 µM in data set [3] (Molt-4 cells, Table 14, read-out: CC50 (μM) [^3H]TTP incorporation in: Molt4). Also, the 50% effective concentration (EC50) in the data set on K65R worked out at 1.03 µM. For the same molecule, the IC50 came to 0.6 µM with 105/A (wt); 0.84 µM in the data set on 105/F (zidovudine^R); 0.3 µM with CCR15 (Lamivudine^R); 1.3 µM in the data set on CCR18 (Lamivudine^R); 1.6 µM with CCR19 (Lamivudine^R).

In the case of `Nc1ccn([C@@H]2CS[C@H](CO)O2)c(=O)n1` [Lamivudine, lamivudine], the CC50 at 72 h is greater than 500 µM in data set [2]; 400 µM in data set [3] (setting [4]); greater than 100 µM in data set [3] (setting [5]); greater than 500 µM in data set [3] (Table 14, read-out: CC50 (μM) [^3H]TTP incorporation in: HT800); greater than 100 µM in data set [3] (Table 14, read-out: CC50 (μM) [^3H]TTP incorporation in: HepG2); greater than 500 µM in data set [3] (Table 14, read-out: CC50 (μM) [^3H]TTP incorporation in: U145). In the data set on K65R, the concentration for a half-maximal effect (EC50) stood at 4.31 µM. Also, the 50% inhibitory concentration (IC50) in the data set on 105/A (wt) is 0.065 µM; in the data set with 105/F (zidovudine^R) it was 0.17 µM; in the data set on CCR15 (Lamivudine^R) it was 95 µM; in the data set on CCR18 (Lamivudine^R), 300 µM; in the data set with CCR19 (Lamivudine^R), 95 µM.

As for `Cc1cn([C@H]2C[C@H](N=[N+]=[N-])[C@@H](CO)O2)c(=O)[nH]c1=O` [Zidovudine, zidovudine], the CC50 at 7 days in data set [1] (Table 4, day 7, read-out: CC50 (μM) WST-1 CBMC) was 74 µM. Also, the CC50 at 72 h is 9 µM in data set [2]; greater than 10 µM in data set [3] (setting [4]); 5 µM in data set [3] (Table 4, read-out: CC50 (μM) [^3H-]TTP incorporation in: HT1080); 3 µM in data set [3] (Table 4, read-out: CC50 (μM) [^3H-]TTP incorporation in: HepG2); 3 µM in data set [3] (setting [5]); greater than 10 µM in data set [3] (Table 4, read-out: CC50 (μM) [^3H-]TTP incorporation in: U-145). The IC50 came out at 0.0043 µM in the data set with 105/A (wt); 0.23 µM in the data set on 105/F (zidovudine^R); 0.003 µM with CCR15 (Lamivudine^R); 0.0042 µM with CCR18 (Lamivudine^R); 0.003 µM with CCR19 (Lamivudine^R).
